Source: PubChem BioAssay AID1259407 (Chemical Carcinogenesis Research Information System (CCRIS), 2018)
Active and inactive are the calls of the source. How the calls were made is not given here.

Tested on: CCRIS mutagenicity, Ames/micronucleus/aberration tests
Test: CCRIS mutagenicity studies
[1] = Test System: AMES SALMONELLA TYPHIMURIUM, Strain/Indicator: TA100, Metabolic Activation: NONE, Method: STANDARD PLATE

Measured: mutagenic call

O=[N+]([O-])C(Cl)(Br)Br
inactive: Test System: Ames Salmonella typhimurium, Strain/Indicator: RSJ100, Metabolic Activation: None, Method: Standard Plate inactive; negative | Test System: Ames Salmonella typhimurium, Strain/Indicator: RSJ100, Metabolic Activation: Rat, Liver, S-9, Aroclor, Method: Standard Plate inactive; negative | Test System: Ames Salmonella typhimurium, Strain/Indicator: TA98, Metabolic Activation: None, Method: Standard Plate inactive; negative | Test System: Ames Salmonella typhimurium, Strain/Indicator: TA98, Metabolic Activation: Rat, Liver, S-9, Aroclor, Method: Standard Plate inactive; negative | Test System: Ames Salmonella typhimurium, Strain/Indicator: TA100, Metabolic Activation: None, Method: Standard Plate inactive; negative | Test System: Ames Salmonella typhimurium, Strain/Indicator: TA100, Metabolic Activation: Rat, Liver, S-9, Aroclor, Method: Standard Plate inactive; negative | Test System: Ames Salmonella typhimurium, Strain/Indicator: TA104, Metabolic Activation: None, Method: Standard Plate inactive; negative | Test System: Ames Salmonella typhimurium, Strain/Indicator: TA104, Metabolic Activation: Rat, Liver, S-9, Aroclor, Method: Standard Plate inactive; negative | Test System: Ames Salmonella typhimurium, Strain/Indicator: TPT100, Metabolic Activation: None, Method: Standard Plate inactive; negative

CC/C=C\C#N
active: Test System: MOUSE LYMPHOMA, Strain/Indicator: L5178Y (TK+/TK-), Metabolic Activation: NONE, Method: SUSPENSION/PLATE active; positive. reevaluation of results: positive | Test System: Mouse lymphoma, Strain/Indicator: L5178Y (tk+/tk-), Metabolic Activation: Rat, Liver, S-9, Aroclor 1254, Method: Suspension/plate active; positive

CN(C)Cc1ccccc1
inactive: Test System: AMES SALMONELLA TYPHIMURIUM, Strain/Indicator: TA98, Metabolic Activation: NONE, Method: PREINCUBATION inactive; negative | Test System: AMES SALMONELLA TYPHIMURIUM, Strain/Indicator: TA98, Metabolic Activation: RAT, LIVER, S-9, PCB, Method: PREINCUBATION inactive; negative | Test System: AMES SALMONELLA TYPHIMURIUM, Strain/Indicator: TA100, Metabolic Activation: NONE, Method: PREINCUBATION inactive; negative | Test System: AMES SALMONELLA TYPHIMURIUM, Strain/Indicator: TA100, Metabolic Activation: RAT, LIVER, S-9, PCB, Method: PREINCUBATION inactive; negative

C[C@@](Cc1ccc(O)c(O)c1)(NN)C(=O)O
inactive: Test System: UDS RAT HEPATOCYTES, Strain/Indicator: THY INCORP, Metabolic Activation: NONE, Method: AUTORADIOGRAPHY inactive; negative
active: [1] active; positive | Test System: AMES SALMONELLA TYPHIMURIUM, Strain/Indicator: TA100, Metabolic Activation: RAT, LIVER, S-9, PHENOBARBITAL, Method: STANDARD PLATE active; positive

C=C(C)C(=O)OCC(CC)(COC(=O)C(=C)C)COC(=O)C(=C)C
active: Test System: AMES SALMONELLA TYPHIMURIUM, Strain/Indicator: TA1535, Metabolic Activation: HAMSTER, LIVER, S-9, AROCLOR 1254 (15-20%), Method: STANDARD PLATE active; positive | Test System: AMES SALMONELLA TYPHIMURIUM, Strain/Indicator: TA1535, Metabolic Activation: HAMSTER, LIVER, S-9, AROCLOR 1254, Method: STANDARD PLATE active; positive
inactive: Test System: AMES SALMONELLA TYPHIMURIUM, Strain/Indicator: TA98, Metabolic Activation: HAMSTER, LIVER, S-9, AROCLOR 1254, Method: STANDARD PLATE inactive; negative | Test System: AMES SALMONELLA TYPHIMURIUM, Strain/Indicator: TA98, Metabolic Activation: NONE, Method: STANDARD PLATE inactive; negative | Test System: AMES SALMONELLA TYPHIMURIUM, Strain/Indicator: TA98, Metabolic Activation: RAT, LIVER, S-9, AROCLOR 1254, Method: STANDARD PLATE inactive; negative | Test System: AMES SALMONELLA TYPHIMURIUM, Strain/Indicator: TA100, Metabolic Activation: HAMSTER, LIVER, S-9, AROCLOR 1254, Method: STANDARD PLATE inactive; negative | [1] inactive; negative | Test System: AMES SALMONELLA TYPHIMURIUM, Strain/Indicator: TA100, Metabolic Activation: RAT, LIVER, S-9, AROCLOR 1254, Method: STANDARD PLATE inactive; negative | Test System: AMES SALMONELLA TYPHIMURIUM, Strain/Indicator: TA1535, Metabolic Activation: HAMSTER, LIVER, S-9, AROCLOR 1254 (5-10%), Method: STANDARD PLATE inactive; negative | Test System: AMES SALMONELLA TYPHIMURIUM, Strain/Indicator: TA1535, Metabolic Activation: NONE, Method: STANDARD PLATE inactive; negative | Test System: AMES SALMONELLA TYPHIMURIUM, Strain/Indicator: TA1535, Metabolic Activation: RAT, LIVER, S-9, AROCLOR 1254, Method: STANDARD PLATE inactive; negative | Test System: AMES SALMONELLA TYPHIMURIUM, Strain/Indicator: TA1537, Metabolic Activation: HAMSTER, LIVER, S-9, AROCLOR 1254, Method: STANDARD PLATE inactive; negative | Test System: AMES SALMONELLA TYPHIMURIUM, Strain/Indicator: TA1537, Metabolic Activation: NONE, Method: STANDARD PLATE inactive; negative | Test System: AMES SALMONELLA TYPHIMURIUM, Strain/Indicator: TA1537, Metabolic Activation: RAT, LIVER, S-9, AROCLOR 1254, Method: STANDARD PLATE inactive; negative

O=c1[nH]sc2cc([N+](=O)[O-])ccc12
active: [1] active; positive
